From ChEMBL document CHEMBL5523677, “Discovery of ASP6918, a KRAS G12C inhibitor: Synthesis and structure-activity relationships of 1-{2,7-diazaspiro[3.5]non-2-yl}prop-2-en-1-one derivatives as covalent inhibitors with good potency and oral activity for the treatment of solid tumors” (Bioorg Med Chem, 2024)

What was measured:
[1] = Inhibition of biotinylated GDP-bound Avi-tagged KRAS G12C mutant (1 to 185 residues)/SOS/GST-tagged c-Raf (unknown origin) complex formation incubated for 1 hr in presence of GTP by fluorescence based analysis; parameters: species or system Homo sapiens
[2] = Inhibition of ERK phosphorylation in KRAS-G12C mutant positive human NCI-H1373 cells incubated for 2 hrs by ELISA; format: cell-based
[3] = Inhibition of ERK phosphorylation in human A-375 cells harboring wild type KRAS and mutant BRAF incubated for 2 hrs by ELISA; format: cell-based; details: A-375, 2 h
NCI-H1373 [4] = assay: Cytotoxicity against KRAS G12C mutant positive human NCI-H1373 cells assessed as inhibition of cell growth incubated for 6 days by Celltiter-Glo 2.0 assay; format: functional, cell-based
[5] = Aqueous solubility of compound in Japanese Pharmacopoeia 2nd fluid at pH 6.8 at 130 umol/L incubated for 20 hrs by liquid chromatography; format: physicochemical; details: dose 130 µmol/L
[6] = Metabolic stability in mouse liver microsomes assessed as intrinsic clearance at 0.1 to 0.2 micromol/L incubated for 30 mins in presence of NADPH-generating system by LC-MS/MS analysis; format: ADME, Microsome; details: dose 0.1-0.2 µmol/L, read-out: CLH
[7] = Lipophilicity, LogD of compound in 1-Octanol/PBS at pH 7.4 by LC-MS analysis; format: physicochemical
[8] = Metabolic stability in human liver microsomes assessed as intrinsic clearance at 0.1 to 0.2 micromol/L incubated for 30 mins in presence of NADPH-generating system by LC-MS/MS analysis; format: ADME, Microsome; details: dose 0.1-0.2 µmol/L, read-out: CLH
[9] = In vivo inhibition of ERK phosphorylation in male nude mouse xenografted with KRAS G12C mutant positive human NCI-H1373 cells assessed as reduction in pERK level in tumor at 3 mg/kg, sc administered as single dose and measured after 6 hrs relative to control; format: functional
[10] = Drug concentration in plasma of male nude mouse xenografted with KRAS G12C mutant positive human NCI-H1373 cells at 3 mg/kg, sc administered as single dose and measured after 6 hrs; format: ADME, organism-based
[11] = Drug concentration in tumor of male nude mouse xenografted with KRAS G12C mutant positive human NCI-H1373 cells at 3 mg/kg, sc administered as single dose and measured after 6 hrs; format: ADME, organism-based, Neoplasm; details: read-out: Ct
[12] = In vivo inhibition of ERK phosphorylation in male nude mouse xenografted with KRAS G12C mutant positive human NCI-H1373 cells assessed as reduction in pERK level in tumor at 20 mg/kg, po administered as single dose and measured after 6 hrs relative to control; format: functional
[13] = In vivo inhibition of ERK phosphorylation in male nude mouse xenografted with KRAS G12C mutant positive human NCI-H1373 cells assessed as reduction in pERK level in tumor at 40 mg/kg, po administered as single dose and measured after 6 hrs relative to control; format: functional
[14] = In vivo inhibition of ERK phosphorylation in male nude mouse xenografted with KRAS G12C mutant positive human NCI-H1373 cells assessed as reduction in pERK level in tumor at 60 mg/kg, po administered as single dose and measured after 6 hrs relative to control; format: functional
[15] = Drug concentration in plasma of male nude mouse xenografted with KRAS G12C mutant positive human NCI-H1373 cells at 20 mg/kg, po administered as single dose and measured after 6 hrs; format: ADME, organism-based
[16] = Drug concentration in plasma of male nude mouse xenografted with KRAS G12C mutant positive human NCI-H1373 cells at 40 mg/kg, po administered as single dose and measured after 6 hrs; format: ADME, organism-based
[17] = Drug concentration in plasma of male nude mouse xenografted with KRAS G12C mutant positive human NCI-H1373 cells at 60 mg/kg, po administered as single dose and measured after 6 hrs; format: ADME, organism-based
[18] = Drug concentration in tumor of male nude mouse xenografted with KRAS G12C mutant positive human NCI-H1373 cells at 20 mg/kg, po administered as single dose and measured after 6 hrs; format: ADME, organism-based, Neoplasm; details: read-out: Ct
[19] = Drug concentration in tumor of male nude mouse xenografted with KRAS G12C mutant positive human NCI-H1373 cells at 40 mg/kg, po administered as single dose and measured after 6 hrs; format: ADME, organism-based, Neoplasm; details: read-out: Ct
[20] = Drug concentration in tumor of male nude mouse xenografted with KRAS G12C mutant positive human NCI-H1373 cells at 60 mg/kg, po administered as single dose and measured after 6 hrs; format: ADME, organism-based, Neoplasm; details: read-out: Ct
NCI-H1373 [21] = assay: Antitumor activity against KRAS G12C mutant positive human NCI-H1373 cells xenografted in male nude mouse assessed as inhibition of tumor growth at 3 mg/kg, sc administered once daily for 13 days and measured on day 14 relative to control; format: functional; details: NCI-H1373, 336 h, time 14 day, read-out: TGI
NCI-H1373 [22] = assay: Antitumor activity against KRAS G12C mutant positive human NCI-H1373 cells xenografted in male nude mouse assessed as inhibition of tumor growth at 10 mg/kg, sc administered once daily for 13 days and measured on day 14 relative to control; format: functional; details: NCI-H1373, 336 h, time 14 day, read-out: TGI
NCI-H1373 [23] = assay: Antitumor activity against KRAS G12C mutant positive human NCI-H1373 cells xenografted in male nude mouse assessed as tumor regression at 10 mg/kg, sc administered once daily for 13 days and measured on day 14 relative to control; format: functional; details: time 14 day
NCI-H1373 [24] = assay: Antitumor activity against KRAS G12C-positive human NCI-H1373 cells xenografted in male nude mouse assessed as inhibition of tumor growth at 10 mg/kg, po administered once daily for 13 days and measured on day 14 relative to control; format: functional; details: NCI-H1373, 336 h, time 14 day, read-out: TGI
NCI-H1373 [25] = assay: Antitumor activity against KRAS G12C-positive human NCI-H1373 cells xenografted in male nude mouse assessed as inhibition of tumor growth at 20 mg/kg, po administered once daily for 13 days and measured on day 14 relative to control; format: functional; details: NCI-H1373, 336 h, time 14 day, read-out: TGI
NCI-H1373 [26] = assay: Antitumor activity against KRAS G12C-positive human NCI-H1373 cells xenografted in male nude mouse assessed as inhibition of tumor growth at 40 mg/kg, po administered once daily for 13 days and measured on day 14 relative to control; format: functional; details: NCI-H1373, 336 h, time 14 day, read-out: TGI
NCI-H1373 [27] = assay: Antitumor activity against KRAS G12C-positive human NCI-H1373 cells xenografted in male nude mouse assessed as inhibition of tumor growth at 60 mg/kg, po administered once daily for 13 days and measured on day 14 relative to control; format: functional; details: NCI-H1373, 336 h, time 14 day, read-out: TGI
NCI-H1373 [28] = assay: Antitumor activity against KRAS G12C-positive human NCI-H1373 cells xenografted in male nude mouse assessed as tumor regression at 40 mg/kg, po administered once daily for 13 days and measured on day 14 relative to control; format: functional; details: time 14 day
NCI-H1373 [29] = assay: Antitumor activity against KRAS G12C-positive human NCI-H1373 cells xenografted in male nude mouse assessed as tumor regression at 60 mg/kg, po administered once daily for 13 days and measured on day 14 relative to control; format: functional; details: time 14 day
[30] = Toxicity in male nude mouse xenografted with KRAS G12C-positive human NCI-H1373 cells assessed as reduction in body weight at 10 to 60 mg/kg, po administered once daily for 13 days; format: organism-based; details: in vivo, 312 h, dose 10-60 mg/kg, time 13 day

Compound: C=CC(=O)N1CC2(CCN(c3nc(OC4CCN(CC)CC4)nc4c(OC5CCC5)c(-c5c(C)ccc6[nH]ncc56)c(Cl)cc34)CC2)C1
- IC50 [1]: 57 nM
- IC50 ([2]; Homo sapiens, NCI-H1373, 2 h): 35 nM

Compound: C=CC(=O)N1CC2(CCN(c3nc(OC4CCN(C)CC4)nc4c(OCC)c(-c5c(C)ccc6[nH]ncc56)c(C=C)cc34)CC2)C1
- IC50 ([2]; Homo sapiens, NCI-H1373, 2 h): 5 nM
- IC50 ([2]; nci-h1373): 4 nM
- IC50 [3]: > 10000 nM
- IC50 (NCI-H1373 [4]; Homo sapiens, NCI-H1373, 144 h): 8 nM
- IC50 (NCI-H1373 [4]; nci-h1373): 6 nM
- solubility at 20 h, 130 µM [5]: > 100 µM
- CLint scaled [6]: 119 mL/min/kg
- logD [7]: 3.7
- CLint scaled [8]: 130 mL/min/kg
- inhibition in vivo at 3 mg/kg [9]: 72%
- concentration at 6 h [10]: 280 nM
- concentration at 6 h [11]: 170 nM
- inhibition in vivo at 20 mg/kg [12]: 38%
- inhibition in vivo at 40 mg/kg [13]: 72%
- inhibition in vivo at 60 mg/kg [14]: 80%
- concentration at 6 h [15]: 21 nM
- concentration at 6 h [16]: 120 nM
- concentration at 6 h [17]: 110 nM
- concentration at 6 h [18]: 7 nM
- concentration at 6 h [19]: 50 nM
- concentration at 6 h [20]: 81 nM
- inhibition in vivo at 3 mg/kg (NCI-H1373 [21]): 82%
- inhibition in vivo at 10 mg/kg (NCI-H1373 [22]): > 100%
- Activity (NCI-H1373 [23]): 73%
- inhibition in vivo at 10 mg/kg (NCI-H1373 [24]): 27%
- inhibition in vivo at 20 mg/kg (NCI-H1373 [25]): 68%
- inhibition in vivo at 40 mg/kg (NCI-H1373 [26]): > 100%
- inhibition in vivo at 60 mg/kg (NCI-H1373 [27]): > 100%
- Activity (NCI-H1373 [28]): 49%
- Activity (NCI-H1373 [29]): 73%
- Activity [30]: Non-Toxic

Compound: C=CC(=O)N1CC2(CCN(c3nc(OC4CCN(C)CC4)nc4c(Cl)c(-c5c(C)ccc6[nH]ncc56)c(F)cc34)CC2)C1
- IC50 ([2]; Homo sapiens, NCI-H1373, 2 h): 96 nM
- IC50 [3]: > 10000 nM
- IC50 (NCI-H1373 [4]; Homo sapiens, NCI-H1373, 144 h): 100 nM
- solubility at 20 h, 130 µM [5]: > 100 µM
- CLint scaled [6]: 115 mL/min/kg
- logD [7]: 3.3

Compound: C=CC(=O)N1CC2(CCN(c3nc(OC4CCN(CC)CC4)nc4c(OCC)c(-c5c(C)ccc6[nH]ncc56)c(Cl)cc34)CC2)C1
- IC50 [1]: 50 nM
- IC50 ([2]; Homo sapiens, NCI-H1373, 2 h): 49 nM

Compound: C=CC(=O)N1CC2(CCN(c3nc(OC4CCN(C)CC4)nc4c(OC5CCC5)c(-c5c(C)ccc6[nH]ncc56)c(C=C)cc34)CC2)C1
- IC50 ([2]; Homo sapiens, NCI-H1373, 2 h): 5 nM
- IC50 [3]: > 10000 nM
- IC50 (NCI-H1373 [4]; Homo sapiens, NCI-H1373, 144 h): 12 nM
- solubility at 20 h, 130 µM [5]: > 100 µM
- CLint scaled [6]: 342 mL/min/kg
- logD [7]: > 4.3

Compound: C=CC(=O)N1CC2(CCN(c3nc(OC4CCN(CC)CC4)nc4c(F)c(-c5c(C)ccc6[nH]ncc56)c(C(=C)C)cc34)CC2)C1
- IC50 [1]: 100 nM
- IC50 ([2]; Homo sapiens, NCI-H1373, 2 h): 140 nM

Compound: C=CC(=O)N1CC2(CCN(c3nc(OC4CCN(CC)CC4)nc4cc(-c5c(C)ccc6[nH]ncc56)c(Cl)cc34)CC2)C1
- IC50 [1]: 250 nM

Compound: C=CC(=O)N1CC2(CCN(c3nc(OC4CCN(CC)CC4)nc4c(OC)c(-c5c(C)ccc6[nH]ncc56)c(Cl)cc34)CC2)C1
- IC50 [1]: 46 nM
- IC50 ([2]; Homo sapiens, NCI-H1373, 2 h): 75 nM

Compound: C=CC(=O)N1CC2(CCN(c3nc(OC4CCN(CC)CC4)nc4c(OC5CC5)c(-c5c(C)ccc6[nH]ncc56)c(Cl)cc34)CC2)C1
- IC50 [1]: 56 nM
- IC50 ([2]; Homo sapiens, NCI-H1373, 2 h): 35 nM

Compound: C=CC(=O)N1CC2(CCN(c3nc(OC4CCN(CC)CC4)nc4c(C#N)c(-c5c(C)ccc6[nH]ncc56)c(Cl)cc34)CC2)C1
- IC50 [1]: 280 nM

Compound: C=CC(=O)N1CC2(CCN(c3nc(OC4CCN(CC)CC4)nc4c(F)c(-c5c(C)ccc6[nH]ncc56)c(CC)cc34)CC2)C1
- IC50 [1]: 59 nM
- IC50 ([2]; Homo sapiens, NCI-H1373, 2 h): 160 nM

Compound: C=CC(=O)N1CC2(CCN(c3nc(OC4CCN(CC)CC4)nc4c(F)c(-c5c(C)ccc6[nH]ncc56)c(C5CC5)cc34)CC2)C1
- IC50 [1]: 51 nM
- IC50 ([2]; Homo sapiens, NCI-H1373, 2 h): 31 nM

Compound: C=CC(=O)N1CC2(CCN(c3nc(OC4CCN(C)CC4)nc4c(OC)c(-c5c(C)ccc6[nH]ncc56)c(C=C)cc34)CC2)C1
- IC50 ([2]; Homo sapiens, NCI-H1373, 2 h): 39 nM
- IC50 [3]: > 10000 nM
- IC50 (NCI-H1373 [4]; Homo sapiens, NCI-H1373, 144 h): 52 nM
- logD [7]: 3.2

Compound: C=CC(=O)N1CC2(CCN(c3nc(OC4CCN(CC)CC4)nc4c(F)c(-c5c(C)ccc6[nH]ncc56)c(-c5ccccc5)cc34)CC2)C1
- IC50 [1]: > 1000 nM

Compound: C=CC(=O)N1CC2(CCN(c3nc(OC4CCN(CC)CC4)nc4c(F)c(-c5c(C)ccc6[nH]ncc56)c(C=C)cc34)CC2)C1
- IC50 [1]: 41 nM
- IC50 ([2]; Homo sapiens, NCI-H1373, 2 h): 37 nM

Compound: C#Cc1cc2c(N3CCC4(CC3)CN(C(=O)C=C)C4)nc(OC3CCN(CC)CC3)nc2c(F)c1-c1c(C)ccc2[nH]ncc12
- IC50 [1]: 56 nM
- IC50 ([2]; Homo sapiens, NCI-H1373, 2 h): 120 nM
